Values after ≈ are worked out from the molar mass of the structure shown.
Experiments:
Staphylococcus aureus [1] = assay: Antibacterial activity against gram-positive Staphylococcus aureus MTCC 96 after 24 hrs by agar well diffusion method; format: functional; details: MTCC 96, 24 h
Micrococcus luteus [2] = assay: Antibacterial activity against gram-positive Micrococcus luteus MTCC 2470 after 24 hrs by agar well diffusion method; format: functional; details: MTCC 2470, 24 h
Staphylococcus aureus [3] = assay: Bactericidal activity against gram-positive Staphylococcus aureus MTCC 96 incubated for 24 hrs followed by microbial sample growth at Mueller Hinton agar plates; format: functional; details: MTCC 96, 24 h
Micrococcus luteus [4] = assay: Bactericidal activity against gram-positive Micrococcus luteus MTCC 2470 incubated for 24 hrs followed by microbial sample growth at Mueller Hinton agar plates; format: functional; details: MTCC 2470, 24 h
[5] = target: T1, 4,4'-diapophytoene synthase (Staphylococcus aureus, UniProt A9JQL9); assay: Inhibition of Staphylococcus aureus dehydrosqualene synthase
T1 sequence (A9JQL9 whole entry): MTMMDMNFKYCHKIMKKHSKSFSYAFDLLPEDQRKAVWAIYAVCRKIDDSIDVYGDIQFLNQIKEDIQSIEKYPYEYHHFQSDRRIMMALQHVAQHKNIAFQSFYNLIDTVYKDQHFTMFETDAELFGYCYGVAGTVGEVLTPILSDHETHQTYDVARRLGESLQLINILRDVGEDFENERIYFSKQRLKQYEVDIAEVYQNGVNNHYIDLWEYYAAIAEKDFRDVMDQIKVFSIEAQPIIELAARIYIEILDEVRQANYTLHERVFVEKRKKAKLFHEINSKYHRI

Candida albicans [6] = assay: Antifungal activity against Candida albicans MTCC 3017 after 24 hrs by agar well diffusion method; format: functional; details: MTCC 3017, 24 h
Candida albicans [7] = assay: Fungicidal activity against Candida albicans MTCC 3017 incubated for 24 hrs followed by microbial sample growth Sabouraud dextrose agar plates; format: functional; details: MTCC 3017, 24 h
Bacillus subtilis [8] = assay: Antibacterial activity against gram-positive Bacillus subtilis MTCC 121 after 24 hrs by agar well diffusion method; format: functional; details: MTCC 121, 24 h
Escherichia coli [9] = assay: Antibacterial activity against gram-negative Escherichia coli MTCC 739 after 24 hrs by agar well diffusion method; format: functional; details: MTCC 739, 24 h
Bacillus subtilis [10] = assay: Bactericidal activity against gram-positive Bacillus subtilis MTCC 121 incubated for 24 hrs followed by microbial sample growth at Mueller Hinton agar plates; format: functional; details: MTCC 121, 24 h
Escherichia coli [11] = assay: Bactericidal activity against gram-negative Escherichia coli MTCC 739 incubated for 24 hrs followed by microbial sample growth at Mueller Hinton agar plates; format: functional; details: MTCC 739, 24 h
Staphylococcus aureus [12] = assay: Antibacterial activity against gram-positive Staphylococcus aureus MLS-16 MTCC 2940 after 24 hrs by agar well diffusion method; format: functional; details: MLS-16 MTCC 2940, 24 h
Raoultella planticola [13] = assay: Antibacterial activity against gram-negative Klebsiella planticola MTCC 530 after 24 hrs by agar well diffusion method; format: functional; details: MTCC 530, 24 h
Staphylococcus aureus [14] = assay: Bactericidal activity against gram-positive Staphylococcus aureus MLS-16 MTCC 2940 incubated for 24 hrs followed by microbial sample growth at Mueller Hinton agar plates; format: functional; details: MLS-16 MTCC 2940, 24 h
Raoultella planticola [15] = assay: Bactericidal activity against gram-negative Klebsiella planticola MTCC 530 incubated for 24 hrs followed by microbial sample growth at Mueller Hinton agar plates; format: functional; details: MTCC 530, 24 h
Pseudomonas aeruginosa = assay: microbe, parasite or virus in culture; details: MTCC 2453, 24 h
Description: Bactericidal activity against gram-negative Pseudomonas aeruginosa MTCC 2453 incubated for 24 hrs followed by microbial sample growth at Mueller Hinton agar plates

| Structure (SMILES) | MIC (Staphylococcus aureus [1]) [µg/mL] | MIC (Micrococcus luteus [2]) [µg/mL] | MBC (Staphylococcus aureus [3]) [µg/mL] | MBC (Micrococcus luteus [4]) [µg/mL] | Ki [5] [µM] | MIC (Candida albicans [6]) [µg/mL] | MFC (Candida albicans [7]) [µg/mL] | MIC (Bacillus subtilis [8]) [µg/mL] | MIC (Escherichia coli [9]) [µg/mL] | MBC (Bacillus subtilis [10]) [µg/mL] | MBC (Escherichia coli [11]) [µg/mL] | MIC (Staphylococcus aureus [12]) [µg/mL] | MIC (Raoultella planticola [13]) [µg/mL] | MBC (Staphylococcus aureus [14]) [µg/mL] | MBC (Raoultella planticola [15]) [µg/mL] | MBC (Pseudomonas aeruginosa) [µg/mL] |
| --- | --- | --- | --- | --- | --- | --- | --- | --- | --- | --- | --- | --- | --- | --- | --- | --- |
| CCOC(=O)c1c(N2CCN(c3cccc(OC)c3)CC2)c2ccccc2n(CC)c1=O | 3.9 (≈ 8.95 µM) | 7.8 (≈ 17.9 µM) | 7.8 (≈ 17.9 µM) | 15.6 (≈ 35.8 µM) | 15.7 |  |  |  |  |  |  |  |  |  |  |  |
| CCOC(=O)c1c(N2CCN(c3ccccc3OC)CC2)c2ccccc2n(CC)c1=O | 3.9 (≈ 8.95 µM) |  | 7.8 (≈ 17.9 µM) |  | 14 |  |  |  |  |  |  |  |  |  |  |  |
| CCOC(=O)c1c(N2CCN(c3ccc(F)cc3)CC2)c2ccccc2n(C)c1=O | 3.9 (≈ 9.52 µM) |  | 7.8 (≈ 19 µM) |  | 1.26 | 7.8 (≈ 19 µM) | 15.6 (≈ 38.1 µM) |  |  |  |  |  |  |  |  |  |
| CCOC(=O)c1c(N2CCN(C(=O)OC(C)(C)C)CC2)c2ccccc2n(C)c1=O | 3.9 (≈ 9.39 µM) |  | 7.8 (≈ 18.8 µM) |  | 5.19 |  |  |  |  |  |  |  |  |  |  |  |
| CCOC(=O)c1c(N2CCN(c3ccccc3C(F)(F)F)CC2)c2ccccc2n(CC)c1=O |  |  |  |  |  | 7.8 (≈ 16.5 µM) | 15.6 (≈ 32.9 µM) | 7.8 (≈ 16.5 µM) | 7.8 (≈ 16.5 µM) | 15.6 (≈ 32.9 µM) | 15.6 (≈ 32.9 µM) |  |  |  |  |  |
| CCOC(=O)c1c(N2CCN(c3ccc(F)cc3)CC2)c2ccccc2n(CC)c1=O | 3.9 (≈ 9.21 µM) | 3.9 (≈ 9.21 µM) | 7.8 (≈ 18.4 µM) | 7.8 (≈ 18.4 µM) | 6.89 | 3.9 (≈ 9.21 µM) | 7.8 (≈ 18.4 µM) | 3.9 (≈ 9.21 µM) | 3.9 (≈ 9.21 µM) | 7.8 (≈ 18.4 µM) | 7.8 (≈ 18.4 µM) | 3.9 (≈ 9.21 µM) | 3.9 (≈ 9.21 µM) | 7.8 (≈ 18.4 µM) | 7.8 (≈ 18.4 µM) |  |
| CCOC(=O)c1c(N2CCN(C(=O)OC(C)(C)C)CC2)c2ccccc2n(CC)c1=O | 3.9 (≈ 9.08 µM) |  | 7.8 (≈ 18.2 µM) |  | 20.2 |  |  |  |  |  |  |  |  |  |  |  |
| O=C(O)c1cn(C2CC2)c2cc(N3CCNCC3)c(F)cc2c1=O [CIPROFLOXACIN] | 0.9 (≈ 2.72 µM) | 0.9 (≈ 2.72 µM) | 0.9 (≈ 2.72 µM) | 0.9 (≈ 2.72 µM) |  |  |  | 0.9 (≈ 2.72 µM) | 0.9 (≈ 2.72 µM) | 0.9 (≈ 2.72 µM) | 0.9 (≈ 2.72 µM) | 0.9 (≈ 2.72 µM) | 0.9 (≈ 2.72 µM) | 0.9 (≈ 2.72 µM) | 0.9 (≈ 2.72 µM) | 0.9 (≈ 2.72 µM) |
| CCOC(=O)c1c(N2CCN(c3ccccc3F)CC2)c2ccccc2n(C)c1=O | 3.9 (≈ 9.52 µM) | 3.9 (≈ 9.52 µM) | 7.8 (≈ 19 µM) | 7.8 (≈ 19 µM) | 7.87 | 3.9 (≈ 9.52 µM) | 7.8 (≈ 19 µM) | 3.9 (≈ 9.52 µM) | 3.9 (≈ 9.52 µM) | 7.8 (≈ 19 µM) | 7.8 (≈ 19 µM) | 7.8 (≈ 19 µM) |  | 15.6 (≈ 38.1 µM) |  |  |
| CCOC(=O)c1c(N2CCN(c3ccccc3F)CC2)c2ccccc2n(CC)c1=O | 3.9 (≈ 9.21 µM) |  | 7.8 (≈ 18.4 µM) |  | 8.33 |  |  |  |  |  |  |  | 7.8 (≈ 18.4 µM) |  | 7.8 (≈ 18.4 µM) |  |
| Clc1ccc(COC(Cn2ccnc2)c2ccc(Cl)cc2Cl)c(Cl)c1 (stereo not given) [MICONAZOLE] |  |  |  |  |  | 7.8 (≈ 18.7 µM) | 7.8 (≈ 18.7 µM) |  |  |  |  |  |  |  |  |  |
| CCOC(=O)c1c(N2CCN(c3ccccc3OC)CC2)c2ccccc2n(C)c1=O | 3.9 (≈ 9.25 µM) |  | 7.8 (≈ 18.5 µM) |  | 19.8 |  |  |  |  |  |  |  |  |  |  |  |
| CCOC(=O)c1c(N2CCN(c3ccccc3C(F)(F)F)CC2)c2ccccc2n(C)c1=O |  |  |  |  |  | 7.8 (≈ 17 µM) | 15.6 (≈ 34 µM) |  |  |  |  |  |  |  |  |  |
| CCOC(=O)c1c(N2CCCC2)c2ccccc2n(CC)c1=O |  | 7.8 (≈ 24.8 µM) |  | 15.6 (≈ 49.6 µM) |  |  |  |  |  |  |  |  |  |  |  |  |
